Each compound was assayed against Coagulation factor X (Homo sapiens, UniProt P00742) (assay: Inhibition of human factor 10a).
Coagulation factor X, sequence (P00742 41-179 limits assumed): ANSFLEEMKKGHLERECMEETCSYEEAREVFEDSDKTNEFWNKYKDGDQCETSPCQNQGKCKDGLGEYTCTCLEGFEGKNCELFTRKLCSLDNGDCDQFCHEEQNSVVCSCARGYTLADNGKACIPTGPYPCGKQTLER
Coagulation factor X, sequence (P00742 235-488 limits assumed): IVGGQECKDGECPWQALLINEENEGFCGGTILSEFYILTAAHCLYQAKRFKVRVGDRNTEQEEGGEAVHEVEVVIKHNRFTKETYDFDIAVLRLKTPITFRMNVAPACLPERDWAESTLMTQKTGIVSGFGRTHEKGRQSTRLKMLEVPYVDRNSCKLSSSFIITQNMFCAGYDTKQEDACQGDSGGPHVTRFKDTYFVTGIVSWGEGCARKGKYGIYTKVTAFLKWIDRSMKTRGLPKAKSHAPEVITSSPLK

Row | IC50 [nM] | SMILES
1 | 373 | Cc1cccc(NC(=N[C@H]2CCCCN(CC(=O)N3CCCC3)C2=O)NC(=O)c2cccc(F)c2)c1
2 | 517 | Cc1cccc(NC(=N[C@H]2CCCCN(CC(=O)N3CCCC3)C2=O)NC(=O)c2ccc(N(C)C)cc2)c1
3 | 546 | COc1ccc(NC(=N[C@H]2CCCCN(CC(=O)N3CCCC3)C2=O)NC(=O)c2cc(Cl)cc(Cl)c2)cc1
4 | 271 | Cc1cccc(NC(=N[C@H]2CCCCN(CC(=O)N3CCCC3)C2=O)NC(=O)c2ccc(F)c(F)c2)c1
5 | 267 | COc1ccc(NC(=N[C@H]2CCCCN(CC(=O)N3CCCC3)C2=O)NC(=O)c2cccc(Cl)c2)cc1
6 | 400 | COc1ccc(C(=O)NC(=N[C@H]2CCCCN(CC(=O)N3CCCC3)C2=O)Nc2cccc(C)c2)cc1OC
7 | 245 | Cc1cccc(NC(=N[C@H]2CCCCN(CC(=O)N3CCCC3)C2=O)NC(=O)c2ccccc2)c1
8 | 198 | Cc1cccc(N/C(=N\C(=O)c2ccc(Cl)cc2)N[C@H]2CCCCN(CC(=O)N3CCCC3)C2=O)c1
9 | 276 | COc1cccc(C(=O)NC(=N[C@H]2CCCCN(CC(=O)N3CCCC3)C2=O)Nc2cccc(C)c2)c1
10 | 835 | Cc1cccc(NC(=N[C@H]2CCCCN(CC(=O)N3CCCC3)C2=O)NC(=O)c2cc(Cl)cc(Cl)c2)c1
11 | 208 | COc1ccc(NC(=N[C@H]2CCCCN(CC(=O)N3CCCC3)C2=O)NC(=O)c2cc(F)cc(F)c2)cc1
12 | 371 | Cc1cccc(NC(=N[C@H]2CCCCN(CC(=O)N3CCCC3)C2=O)NC(=O)c2cccc(Cl)c2)c1
13 | 709 | COc1ccc(C(=O)NC(=N[C@H]2CCCCN(CC(=O)N3CCCC3)C2=O)Nc2cccc(C)c2)cc1
14 | 256 | COc1ccc(NC(=N[C@H]2CCCCN(CC(=O)N3CCCC3)C2=O)NC(=O)c2cccc(F)c2)cc1
15 | 396 | Cc1cccc(NC(=N[C@H]2CCCCN(CC(=O)N3CCCC3)C2=O)NC(=O)c2cc(F)cc(F)c2)c1

The remaining lines, values behind:

Row | SMILES | IC50 [nM]
16 | COc1ccc(N/C(=N\C(=O)C2CCN(C(=O)c3ccccc3)CC2)N[C@H]2CCCCN(CC(=O)N3CCCC3)C2=O)cc1 | 506
17 | Cc1cc2cc(N/C(=N\C(=O)C3CCN(C(=O)c4ccccc4)CC3)N[C@H]3CCCCN(CC(=O)N4CCCC4)C3=O)ccc2o1 | 10
18 | Cc1cc2cc(N/C(=N\C(=O)c3sc(C)nc3C)N[C@H]3CCCCN(CC(=O)N4CCCC4)C3=O)ccc2o1 | 17
19 | COc1ccc(NC(=N[C@H]2CCCCN(CC(=O)N3CCCC3)C2=O)NC(=O)c2ccc(N(C)C)cc2)cc1 | 403
20 | COc1ccc(NC(=N[C@H]2CCCCN(CC(=O)N3CCCC3)C2=O)NC(=O)c2cc(OC)cc(OC)c2)cc1 | 872
21 | COc1ccc(NC(=N[C@H]2CCCCN(CC(=O)N3CCCC3)C2=O)NC(=O)c2ccc(F)c(F)c2)cc1 | 272
22 | Cc1cccc(N/C(=N\C(=O)c2sc(C)nc2C)N[C@H]2CCCCN(CC(=O)N3CCCC3)C2=O)c1 | 462
23 | COc1ccc(N/C(=N\C(=O)c2cccc(OC)c2)N[C@H]2CCCCN(CC(=O)N3CCCC3)C2=O)cc1 | 193
24 | Cc1cccc(N/C(=N\C(=O)c2ccc(F)cc2)N[C@H]2CCCCN(CC(=O)N3CCCC3)C2=O)c1 | 222
25 | COc1ccc(NC(=N[C@H]2CCCCN(CC(=O)N3CCCC3)C2=O)NC(=O)c2ccc(Cl)cc2)cc1 | 294
26 | COc1ccc(NC(=N[C@H]2CCCCN(CC(=O)N3CCCC3)C2=O)NC(=O)c2ccccc2)cc1 | 246
27 | Cc1cccc(N/C(=N\C(=O)c2ccno2)N[C@H]2CCCCN(CC(=O)N3CCCC3)C2=O)c1 | 628
28 | COc1cc(OC)cc(C(=O)/N=C(\Nc2cccc(C)c2)N[C@H]2CCCCN(CC(=O)N3CCCC3)C2=O)c1 | 1160
29 | Cc1cc2cc(N/C(=N\C(=O)c3ccno3)N[C@H]3CCCCN(CC(=O)N4CCCC4)C3=O)ccc2o1 | 14
30 | Cc1cccc(N/C(=N\C(=O)C2CCN(C(=O)c3ccccc3)CC2)N[C@H]2CCCCN(CC(=O)N3CCCC3)C2=O)c1 | 1070
31 | COc1ccc(N/C(=N\C(=O)c2sc(C)nc2C)N[C@H]2CCCCN(CC(=O)N3CCCC3)C2=O)cc1 | 386
32 | COc1ccc(N/C(=N\C(=O)c2ccc(OC)cc2)N[C@H]2CCCCN(CC(=O)N3CCCC3)C2=O)cc1 | 227
33 | COc1ccc(N/C(=N\C(=O)c2ccno2)N[C@H]2CCCCN(CC(=O)N3CCCC3)C2=O)cc1 | 380
34 | COc1ccc(N/C(=N\C(=O)c2ccc(F)cc2)N[C@H]2CCCCN(CC(=O)N3CCCC3)C2=O)cc1 | 368
35 | COc1ccc(N/C(=N\C(=O)c2ccc(OC)c(OC)c2)N[C@H]2CCCCN(CC(=O)N3CCCC3)C2=O)cc1 | 494

What follows are compounds tested on Plasma (assay: Anticoagulant activity in human plasma assessed as concentration required to double prothrombin-based clotting time).
Format: functional

Row | SMILES | Activity [µM]
36 | COc1ccc(N/C(=N\C(=O)C2CCN(C(=O)c3ccccc3)CC2)N[C@H]2CCCCN(CC(=O)N3CCCC3)C2=O)cc1 | 48
37 | Cc1cc2cc(N/C(=N\C(=O)C3CCN(C(=O)c4ccccc4)CC3)N[C@H]3CCCCN(CC(=O)N4CCCC4)C3=O)ccc2o1 | 7.5
38 | Cc1cc2cc(N/C(=N\C(=O)c3sc(C)nc3C)N[C@H]3CCCCN(CC(=O)N4CCCC4)C3=O)ccc2o1 | 42
39 | Cc1cc2cc(N/C(=N\C(=O)c3ccccc3)N[C@H]3CCCCN(CC(=O)N4CCCC4)C3=O)ccc2o1 | 48
40 | Cc1cccc(N/C(=N\C(=O)c2sc(C)nc2C)N[C@H]2CCCCN(CC(=O)N3CCCC3)C2=O)c1 | >50
41 | Cc1cccc(N/C(=N\C(=O)c2ccno2)N[C@H]2CCCCN(CC(=O)N3CCCC3)C2=O)c1 | 50
42 | Cc1cc2cc(N/C(=N\C(=O)c3ccno3)N[C@H]3CCCCN(CC(=O)N4CCCC4)C3=O)ccc2o1 | 17.7
43 | Cc1cccc(N/C(=N\C(=O)C2CCN(C(=O)c3ccccc3)CC2)N[C@H]2CCCCN(CC(=O)N3CCCC3)C2=O)c1 | >50
44 | COc1ccc(N/C(=N\C(=O)c2sc(C)nc2C)N[C@H]2CCCCN(CC(=O)N3CCCC3)C2=O)cc1 | >50
45 | COc1ccc(N/C(=N\C(=O)c2ccno2)N[C@H]2CCCCN(CC(=O)N3CCCC3)C2=O)cc1 | 45
